Assays:
recombinant CK2A1 = molecular target: T1, recombinant CK2A1 (Homo sapiens, UniProt P68400); test: CK2 kinase assay (CK2A1), [γ-33P]ATP filter-binding; assay type: biochemical; conditions: recombinant CK2A1 10 nM, ATP 25 μM, 10 μM peptide substrate, 30° C. 1 h
T1 construct: purchased Invitrogen
Protocol: (§1) The effectiveness of compounds of the present invention as inhibitors of protein kinases can be readily tested by assays known to those skilled in the art. For example, in vitro protein kinase assays may be conducted with a relevant purified protein kinase and an appropriate synthetic substrate to determine the inhibitory activities of the compounds. […] Reaction mixtures were incubated at 30° C. for 1 h, and reaction products were captured by binding to phosphocellulose (P81) filter plates. Incorporation of radioactive phosphate into the peptide substrate was determined by liquid scintillation counting. The potency of compounds in inhibiting CK2 is expressed as IC50, defined as the concentrations of compounds required to inhibit the enzymatic activity by 50%.

HCT116 = test: Cell proliferation inhibition assay (MTT, CellTiter96); assay type: cell-based; conditions: Homo sapiens, HCT-116; HCT116 cells, 72 h with compound, MTT readout
Protocol: B. Cell Proliferation Inhibition Assay
Compounds were evaluated for their ability to inhibit cell proliferation, using an assay that measures mitochondrial metabolic activity, that is directly correlated with cell numbers. Cells were plated at 2000 cells/well in 96-well plates and were cultured for 24 h in RPMI-1640 supplemented with 2% fetal bovine serum, before test compounds were added. Compounds were diluted in culture medium such that the final concentration of dimethyl sulfoxide never exceeded 1%. Following the addition of compounds, the cells were cultured for an additional 72 h before cell viability was determined by measuring the conversion of 3-(4,5-dimethylthiazol-2-yl)-2,5-diphenyltetrazolium bromide (MTT) dye using the CellTiter96 kit (Promega).

recombinant CK2A2 = molecular target: T2, recombinant CK2A2 (Homo sapiens, UniProt P19784); test: CK2 kinase assay (CK2A2), [γ-33P]ATP filter-binding; assay type: biochemical; conditions: recombinant CK2A2 5 nM, ATP 5 μM, 10 μM peptide substrate, 30° C. 1 h
T2 construct: purchased Upstate Biotechnology
T2 sequence (P19784 whole entry): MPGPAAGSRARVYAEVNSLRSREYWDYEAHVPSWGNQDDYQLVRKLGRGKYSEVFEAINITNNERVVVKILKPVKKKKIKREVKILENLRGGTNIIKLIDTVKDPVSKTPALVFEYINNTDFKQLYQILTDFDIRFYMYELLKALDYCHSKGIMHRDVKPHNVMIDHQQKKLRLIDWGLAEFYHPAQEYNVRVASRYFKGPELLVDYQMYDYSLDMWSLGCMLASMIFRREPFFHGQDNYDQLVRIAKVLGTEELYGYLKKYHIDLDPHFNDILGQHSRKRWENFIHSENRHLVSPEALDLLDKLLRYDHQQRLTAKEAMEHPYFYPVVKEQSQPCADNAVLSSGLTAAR
Protocol: as §1

T1 sequence (P68400 whole entry): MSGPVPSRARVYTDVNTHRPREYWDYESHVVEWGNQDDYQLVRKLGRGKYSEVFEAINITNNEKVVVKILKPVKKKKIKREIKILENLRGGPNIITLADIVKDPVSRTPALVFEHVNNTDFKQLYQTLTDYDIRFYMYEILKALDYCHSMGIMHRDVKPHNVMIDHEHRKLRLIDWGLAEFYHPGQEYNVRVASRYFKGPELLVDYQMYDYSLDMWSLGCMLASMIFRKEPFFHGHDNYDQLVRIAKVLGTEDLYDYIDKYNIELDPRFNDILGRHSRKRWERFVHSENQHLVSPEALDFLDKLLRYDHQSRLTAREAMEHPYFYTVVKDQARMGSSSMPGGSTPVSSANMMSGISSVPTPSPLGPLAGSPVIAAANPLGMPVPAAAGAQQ

IC50 (recombinant CK2A1) | IC50 (HCT116) | IC50 (recombinant CK2A2) | SMILES
12.5 nM | 870 nM | 0.8 nM | Cc1cc(Nc2cc(N[C@H]3CC[C@H](NC(=O)CC#N)CC3)nn3c(C(=O)Nc4ccnc(Cl)c4)cnc23)no1 [Example 560, N-(2-chloro-4-pyridinyl)-6-((trans-4-((cyanoacetyl)amino)cyclohexyl)amino)-8-((5-methyl-3-isoxazolyl)amino) imidazo[1,2-b]pyridazine-3-carboxamide]
559 nM | 1610 nM | 145 nM | O=C(Nc1ccnc(Cl)c1)c1cnc2c(NC3CC3)cc(N[C@H]3CC[C@H](N(CCO)CCO)CC3)nn12 [Example 534, 6-((trans-4-(bis(2-hydroxyethyl)amino)cyclohexyl)amino)-N-(2-chloro-4-pyridinyl)-8-(cyclopropylamino)imidazo [1,2-b]pyridazine-3-carboxamide]
7 nM | 90 nM | 3 nM | N[C@H]1CC[C@H](Nc2cc(NC3CC3)c3ncc(C(=O)Nc4ccncc4F)n3n2)CC1 [Example 468, 6-((trans-4-aminocyclohexyl)amino)-8-(cyclopropylamino)-N-(3-fluoro-4-pyridinyl)imidazo [1,2-b]pyridazine-3-carboxamide]
9.7 nM | 60 nM | 1.2 nM | N#CCC(=O)N[C@H]1CC[C@H](Nc2cc(Nc3nccs3)c3ncc(C(=O)Nc4ccnc(Cl)c4)n3n2)CC1 [Example 562, N-(2-chloro-4-pyridinyl)-6-((trans-4-((cyanoacetyl)amino)cyclohexyl)amino)-8-(1,3-thiazol-2-ylamino)imidazo [1,2-b]pyridazine-3-carboxamide]
234 nM | 450 nM | 87 nM | CN(C)CCOc1ccc(Nc2cc(N[C@H]3CC[C@H](N)CC3)nn3c(C(=O)Nc4ccncc4F)cnc23)cc1 [Example 501, 6-((trans-4-aminocyclohexyl)amino)-8-((4-(2-(dimethylamino)ethoxy)phenyl)amino)-N-(3-fluoro-4-pyridinyl)imidazo[1,2-b]pyridazine-3-carboxamide]
19.6 nM | 40 nM | 2.1 nM | Cc1cc(Nc2cc(N[C@H]3CC[C@H](O)CC3)nn3c(C(=O)Nc4ccnc(Cl)c4)cnc23)nn1C [Example 553, N-(2-chloro-4-pyridinyl)-8-((1,5-dimethyl-1H-pyrazol-3-yl)amino)-6-((trans-4-hydroxycyclohexyl)amino)imidazo[1,2-b]pyridazine-3-carboxamide]
58 nM | 170 nM | 42 nM | N[C@H]1CC[C@H](Nc2cc(Nc3ccccc3)c3ncc(C(=O)Nc4ccncn4)n3n2)CC1 [Example 518, 6-((trans-4-aminocyclohexyl)amino)-8-anilino-N-4-pyrimidinylimidazo[1,2-b] pyridazine-3-carboxamide]

More lines, now with the values behind:

SMILES | IC50 (recombinant CK2A1) | IC50 (HCT116) | IC50 (recombinant CK2A2)
CN[C@H](C)C(=O)N[C@H]1CC[C@H](Nc2cc(NC3CC3)c3ncc(C(=O)Nc4ccnc(Cl)c4)n3n2)CC1 (relative stereo) [Example 154, N-(2-chloro-4-pyridinyl)-8-(cyclopropylamino)-6-((trans-4-((N-methyl-D-alanyl)amino)cyclohexyl)amino)imidazo[1,2-b] pyridazine-3-carboxamide] | 38.5 nM | 210 nM | 0.2 nM
COCCNC(=O)N[C@H]1CC[C@H](Nc2cc(NC3CC3)c3ncc(C(=O)Nc4ccnc(Cl)c4)n3n2)CC1 [Example 276, N-(2-chloro-4-pyridinyl)-8-(cyclopropylamino)-6-((trans-4-(((2-methoxyethyl)carbamoyl)amino)cyclohexyl)amino)imidazo [1,2-b]pyridazine-3-carboxamide] | 15.5 nM | 160 nM | 1.1 nM
CC(C)CC(=O)N[C@H]1CC[C@H](Nc2cc(NC3CC3)c3ncc(C(=O)Nc4ccnc(Cl)c4)n3n2)CC1 [Example 164, N-(2-chloro-4-pyridinyl)-8-(cyclopropylamino)-6-((trans-4-((3-methylbutanoyl)amino)cyclohexyl)amino) imidazo[1,2-b]pyridazine-3-carboxamide] | 22.8 nM | > 2500 nM | 2.1 nM
C[C@H](N)C(=O)N[C@H]1CC[C@H](Nc2cc(NC3CC3)c3ncc(C(=O)Nc4ccnc(F)c4)n3n2)CC1 [Example 134, 6-((trans-4-(L-alanylamino)cyclohexyl)amino)-8-(cyclopropylamino)-N-(2-fluoro-4-pyridinyl)imidazo[1,2-b]pyridazine-3-carboxamide] | 55 nM | 170 nM | 13 nM
N[C@H]1CC[C@H](Nc2cc(Nc3ccc(CN4CCOCC4)cc3)c3ncc(C(=O)Nc4ccncc4)n3n2)CC1 [Example 414, 6-((trans-4-aminocyclohexyl)amino)-8-((4-(4-morpholinylmethyl)phenyl)amino)-N-4-pyridinylimidazo[1,2-b]pyridazine-3-carboxamide] | 115 nM | 540 nM | 47 nM
NCCCC(=O)N[C@H]1CC[C@H](Nc2cc(NC3CC3)c3ncc(C(=O)Nc4ccnc(F)c4)n3n2)CC1 [Example 143, 6-((trans-4-((4-aminobutanoyl)amino)cyclohexyl)amino)-8-(cyclopropylamino)-N-(2-fluoro-4-pyridinyl)imidazo [1,2-b]pyridazine-3-carboxamide] | 199 nM | 340 nM | 70 nM
O=C(Nc1ccncc1F)c1cnc2c(NC3CC3)cc(N[C@H]3CC[C@H](NC(=O)[C@H]4CCCN4)CC3)nn12 [Example 104, 8-(cyclopropylamino)-N-(3-fluoro-4-pyridinyl)-6-((trans-4-(D-prolylamino)cyclohexyl)amino)imidazo[1,2-b]pyridazine-3-carboxamide] | 38 nM | 200 nM | 10 nM
O=C(Nc1ccnc(F)c1)c1cnc2c(NC3CC3)cc(N[C@H]3CC[C@H](NC(=O)C4CCCNC4)CC3)nn12 (stereo partly drawn) [Example 144, 8-(cyclopropylamino)-N-(2-fluoro-4-pyridinyl)-6-((trans-4-((3-piperidinylcarbonyl)amino)cyclohexyl)amino) imidazo[1,2-b]pyridazine-3-carboxamide] | 183 nM | > 2500 nM | 70 nM
N#CCC(=O)N[C@H]1CC[C@H](Nc2cc(NC3CC3)c3ncc(C(=O)Nc4ccnc(Cl)c4)n3n2)CC1 [Example 34, N-(2-chloropyridin-4-yl)-6-((trans)-4-(2-cyanoacetamido)cyclohexylamino)-8-(cyclopropylamino)imidazo[1,2-b]pyridazine-3-carboxamide] | 11.5 nM | 170 nM | 0.8 nM
O=C(Nc1ccncc1F)c1cnc2c(NC3CC3)cc(NC3CCCC3)nn12 [Example 333, 6-(cyclopentylamino)-8-(cyclopropylamino)-N-(3-fluoro-4-pyridinyl)imidazo[1,2-b] pyridazine-3-carboxamide] | 26 nM | 220 nM | 5 nM
C[C@H](CN)C(=O)N[C@H]1CC[C@H](Nc2cc(NC3CC3)c3ncc(C(=O)Nc4ccnc(Cl)c4)n3n2)CC1 [Example 146, 6-((trans-4-(((2R)-3-amino-2-methylpropanoyl)amino)cyclohexyl)amino) N-(2-chloro-4-pyridinyl)-8-(cyclopropylamino)imidazo [1,2-b]pyridazine-3-carboxamide] | 25.9 nM | 590 nM | 1.5 nM
NCC(=O)N[C@H]1CC[C@H](Nc2cc(NC3CC3)c3ncc(C(=O)Nc4ccncc4F)n3n2)CC1 [Example 124, 8-(cyclopropylamino)-N-(3-fluoro-4-pyridinyl)-6-((trans-4-(glycylamino)cyclohexyl)amino)imidazo[1,2-b]pyridazine-3-carboxamide] | 31 nM | 300 nM | 8 nM
